Source: patent US20220370553A1, “PREBIOTIC-INDUCED ANTI-TUMOR IMMUNITY” (Sanford Burnham Prebys Medical Discovery Institute, priority 2019, published 2022)

What was measured:
[1] = system: bone marrow-derived dendritic cells (BMDCs); experiment: Activation of bone marrow-derived dendritic cells in vitro; type: cell-based, murine; details: 24 h, 0.05 and 0.5 mg/ml
Description: Data are representative of two independent experiments. Graphs show the mean±s.e.m. *P<0.05, **P<0.005, ***P<0.001, ****P<0.0001 one-way ANOVA with Tukey's correction.
Bone Marrow-Derived Dendritic Cells (BMDCs).

Yumm1.5 tumors [2] = experiment: Flow cytometry of tumor-infiltrating immune cells in Yumm1.5 tumors; type: in vivo, C57BL/6 mice; details: 20 days following tumor inoculation
Description: (§1) FIG. 2B, Quantification of tumor-infiltrating effector (CD44hi) CD4+, CD8+ and CD45+ T cells from mice treated as in FIG. 2A (n=10). FIG. 2C, Quantification of tumor-infiltrating, IFN-g-producing CD4+ T cells from mice treated as in FIG. 2A (n=10). FIG. 2D, Quantification of tumor-infiltrating total DCs and subsets in mice treated as in FIG. 2A (n=10). FIG. 2E, MFI of MHC class I and MHC class II on DCs from the tumors of mice treated as in FIG. 2A (n=10). […] Graphs show the mean s.e.m. *P<0.05, **P<0.005, ***P<0.001,****P<0.0001 by two-way ANOVA with Tukey's correction (A) and by one-way ANOVA with Tukey's correction (B-E).
Tumor digestion. Tumors were excised, minced, and digested with 1 mg/ml collagenase D (Roche) and 100 μg/ml DNase I (Sigma) at 37° C. for 1 h. Digests were then passed through a 70-μm cell strainer to generate a single-cell suspension. The cells were washed twice with PBS containing 2 mM EDTA, and then stained for flow cytometry.
Flow cytometry. Tumor-derived single-cell suspensions were washed twice with FACS staining buffer, fixed for 15 min with 1% formaldehyde in PBS, washed twice, and resuspended in FACS staining buffer. For intracellular cytokine staining, cells were resuspended in complete RPMI-1640 (containing 10 mM HEPES, 1% non-essential amino acids and L-glutamine, 1 mM sodium pyruvate, 10% heat-inactivated fetal bovine serum (FBS), and antibiotics) supplemented with 50 U/mL IL-2 (NCI), […] brefeldin A (BFA, Sigma), and incubated with phorbol myristate acetate (10 ng/ml) and ionomycin (0.5 μg/ml) at 37° C. The cells were then fixed and permeabilized using a Cytofix/Cytoperm Kit (BD Biosciences) before staining. Antibodies to the following proteins were used: CD45.2 (104), CD8a (53-6.7), CD4 (GK1.5), CD44 (IM7), TNF-α (MP6-XT22), IFN-γ (XMG1.2), CD11c (N418), CD11b (M1/70), MHC class II (M5/114.15.2), PDCA (129c1), and B220 (RA3-6B2) from BioLegend, and antibodies to IL-2 (JES6-5H4) and MHC class I (AF6-88.5.5.3) from eBioscience. All data were collected on an LSRFortessa (BD Biosciences) and analyzed using FlowJo Software (Tree Star).

Yumm1.5 tumors [3] = experiment: Growth of Yumm1.5 melanoma tumors in prebiotic-fed mice; type: in vivo, C57BL/6 mice; details: mucin 3% in drinking water or inulin 15% w/w chow from 2 weeks prior to inoculation of 1×10^6 Yumm1.5 cells
Description: as §1

Substance: mucin
- CD40, CD80, MHC I and MHC II on BMDCs [1]: increased
- MHC class I and MHC class II on tumor-resident DCs (Yumm1.5 tumors [2]): higher levels
- dendritic cell subsets including pDCs and CD8a+ conventional DCs in tumors (Yumm1.5 tumors [2]): increased
- effector (CD44hi) CD4+ and CD8+ T cells, and CD45+ cells in tumors (Yumm1.5 tumors [2]; compared to control mice): enrichment
- melanoma tumor growth (Yumm1.5 tumors [3]): attenuated
